How the values were obtained:
[1] = test system: IL-2 MALT1-dependent release in Jurkat cells; assay: cells; type: cell-based; conditions: Homo sapiens; Jurkat cells stimulated with antiCD3/antiCD28 for 24 h; IL-2 ELISA; read-out: EC50, IL-2 MALT1-dependent release inhibition
Description: Jurkat cells (ATCC, USA) (100,000 cells/well in a 96 well flat-bottom plate (Greiner, #655061) were cultured in RPMI 1640 supplemented with 10% FBS at 37° C., 5% CO2 in a humidified cell culture incubator for 0.5-1 h. Then 10 μl/well 15× compound (or DMSO) was added in duplicates. Cells were incubated with compound in a humidified cell culture incubator for 0.5-1 h. After the incubation, 10 μl/well of 15× human antiCD3 HIT3a antibody (BioLegend) together with 10 μl/well of 15× human antiCD28 antibody (Invitrogen) were added to stimulate Jurkat cells for 24 h. After 24 h of stimulation, supernatants were collected and IL-2 levels in supernatants were assessed using IL-2 ELISA kit (Vector-Best, Russia).

[2] = molecular target: MALT1 (Homo sapiens (Human), UniProt Q9UDY8); assay: MALT1 enzymatic activity inhibition (fluorescence, Ac-LRSR-AMC substrate); type: biochemical; conditions: recombinant MALT1 1.5 ng/μl, Ac-LRSR-AMC 1 μM
Method in brief: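 Recombinant human MALT1 (1.5 ng/μl final) preincubated 10 min at rt with compounds in 50 mM HEPES pH 7.2-7.4, 100 mM NaCl, 900 mM sodium citrate, 10 mM DTT; 1 μM Ac-LRSR-AMC then added. AMC fluorescence read at start and after 30 min 37 °C plus 30 min rt; difference gives signal, % inhibition fitted to IC50.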

MALT1, sequence (Q9UDY8 whole entry): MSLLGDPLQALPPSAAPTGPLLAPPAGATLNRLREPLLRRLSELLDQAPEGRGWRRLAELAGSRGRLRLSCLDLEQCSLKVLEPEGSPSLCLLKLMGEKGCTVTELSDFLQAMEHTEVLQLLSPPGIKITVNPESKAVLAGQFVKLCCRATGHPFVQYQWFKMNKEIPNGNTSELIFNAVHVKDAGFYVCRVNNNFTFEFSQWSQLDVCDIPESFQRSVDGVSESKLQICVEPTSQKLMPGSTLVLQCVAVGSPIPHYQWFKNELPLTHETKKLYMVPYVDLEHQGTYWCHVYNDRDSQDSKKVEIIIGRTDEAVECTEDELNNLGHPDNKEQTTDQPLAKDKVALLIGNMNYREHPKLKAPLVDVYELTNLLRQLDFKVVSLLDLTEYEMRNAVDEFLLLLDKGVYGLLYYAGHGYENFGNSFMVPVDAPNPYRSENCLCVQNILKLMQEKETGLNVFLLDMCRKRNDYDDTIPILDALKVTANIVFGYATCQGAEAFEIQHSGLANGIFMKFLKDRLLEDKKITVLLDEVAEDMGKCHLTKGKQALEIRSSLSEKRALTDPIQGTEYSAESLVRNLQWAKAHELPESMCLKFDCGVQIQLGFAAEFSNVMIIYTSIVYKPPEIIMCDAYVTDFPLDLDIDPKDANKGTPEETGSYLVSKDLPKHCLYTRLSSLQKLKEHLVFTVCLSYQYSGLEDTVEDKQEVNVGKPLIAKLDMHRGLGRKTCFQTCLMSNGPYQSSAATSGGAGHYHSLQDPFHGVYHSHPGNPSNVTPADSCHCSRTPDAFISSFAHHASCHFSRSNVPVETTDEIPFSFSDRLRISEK

Row | Structure (SMILES) | EC50 [1] | EC50 [2]
1 | Cc1cc2ncc(NC(=O)Nc3cnc(-c4noc(CCCCCC(=O)N5CCN(c6ccc7c(c6)CN(C6CCC(=O)NC6=O)C7=O)CC5)n4)c(C)c3)c(C3CCCC3)n2n1 (stereo not shown) [Compound 82, 1-(7-cyclopentyl-2-methyl-pyrazolo[1,5-a]pyrimidin-6-yl)-3-[6-[5-[6-[4-[2-(2,6-dioxo-3-piperidyl)-1-oxo-isoindolin-5-yl]piperazin-1-yl]-6-oxo-hexyl]-1,2,4-oxadiazol-3-yl]-5-methyl-3-pyridyl]urea] | 1000 to 5000 nM | ≤ 0.2 µM
2 | Cc1cc2ncc(NC(=O)Nc3cnc(-c4noc(CCCCC(=O)N5CCN(c6ccc7c(c6)CN(C6CCC(=O)NC6=O)C7=O)CC5)n4)c(C)c3)c(C3CCCO3)n2n1 (stereo not shown) [Compound 84, 1-[6-[5-[5-[4-[2-(2,6-dioxo-3-piperidyl)-1-oxo-isoindolin-5-yl]piperazin-1-yl]-5-oxo-pentyl]-1,2,4-oxadiazol-3-yl]-5-methyl-3-pyridyl]-3-(2-methyl-7-tetrahydrofuran-2-yl-pyrazolo[1,5-a]pyrimidin-6-yl)urea] | 1000 to 5000 nM | ≤ 0.2 µM
3 | Cc1cc(NC(=O)Nc2cnc3ccnn3c2C2CCCC2)cnc1-c1noc(CCCCCN2CCN(c3ccc4c(c3)CN(C3CCC(=O)N(COC(=O)C(C)(C)C)C3=O)C4=O)CC2)n1 (stereo not shown) [Compound 88, [3-[5-[4-[5-[3-[5-[(7-cyclopentylpyrazolo[1,5-a]pyrimidin-6-yl)carbamoylamino]-3-methyl-2-pyridyl]-1,2,4-oxadiazol-5-yl]pentyl]piperazin-1-yl]-1-oxo-isoindolin-2-yl]-2,6-dioxo-1-piperidyl]methyl 2,2-dimethylpropanoate] | 1000 to 5000 nM | ≤ 0.2 µM
4 | O=C1CCC(N2Cc3cc(N4CCN(C(=O)CCCCc5nc(-c6ncc(NC(=O)Nc7cnc8ccnn8c7C7CCCC7)cc6C(F)(F)F)no5)CC4)ccc3C2=O)C(=O)N1 (stereo not shown) [Compound 96, 1-(7-cyclopentylpyrazolo[1,5-a]pyrimidin-6-yl)-3-[6-[5-[5-[4-[2-(2,6-dioxo-3-piperidyl)-1-oxo-isoindolin-5-yl]piperazin-1-yl]-5-oxo-pentyl]-1,2,4-oxadiazol-3-yl]-5-(trifluoromethyl)-3-pyridyl]urea] | < 500 nM | ≤ 0.2 µM
5 | O=C1CCC(N2Cc3cc(N4CCN(C(=O)CCCCCc5nc(-c6ncc(NC(=O)Nc7cnc8ccnn8c7C7CCCC7)cc6C(F)(F)F)no5)CC4)ccc3C2=O)C(=O)N1 (stereo not shown) [Compound 104, 1-(7-cyclopentylpyrazolo[1,5-a]pyrimidin-6-yl)-3-[6-[5-[6-[4-[2-(2,6-dioxo-3-piperidyl)-1-oxo-isoindolin-5-yl]piperazin-1-yl]-6-oxo-hexyl]-1,2,4-oxadiazol-3-yl]-5-(trifluoromethyl)-3-pyridyl]urea] | < 500 nM | ≤ 0.2 µM
6 | O=C1CCC(N2Cc3cc(N4CCN(C(=O)CCCc5nc(-c6ncc(NC(=O)Nc7cnc8ccnn8c7C7CCCC7)cc6C(F)(F)F)no5)CC4)ccc3C2=O)C(=O)N1 (stereo not shown) [Compound 106, 1-(7-cyclopentylpyrazolo[1,5-a]pyrimidin-6-yl)-3-[6-[5-[4-[4-[2-(2,6-dioxo-3-piperidyl)-1-oxo-isoindolin-5-yl]piperazin-1-yl]-4-oxo-butyl]-1,2,4-oxadiazol-3-yl]-5-(trifluoromethyl)-3-pyridyl]urea] | < 500 nM | ≤ 0.2 µM
7 | Cc1cc(NC(=O)Nc2cnc3ccnn3c2C2CCCCC2)cnc1-c1noc(CCCCCC(=O)N2CCN(c3ccc4c(c3)CN(C3CCC(=O)NC3=O)C4=O)CC2)n1 (stereo not shown) [Compound 107, 1-(7-cyclohexylpyrazolo[1,5-a]pyrimidin-6-yl)-3-[6-[5-[6-[4-[2-(2,6-dioxo-3-piperidyl)-1-oxo-isoindolin-5-yl]piperazin-1-yl]-6-oxo-hexyl]-1,2,4-oxadiazol-3-yl]-5-methyl-3-pyridyl]urea] | 1000 to 5000 nM | ≤ 0.2 µM
8 | O=C1CCC(N2Cc3cc(N4CCN(CCCCCc5nc(-c6ncc(NC(=O)Nc7cnc8ccnn8c7C7CCCC7)cc6C(F)(F)F)no5)CC4)ccc3C2=O)C(=O)N1 (stereo not shown) [Compound 108, 1-(7-cyclopentylpyrazolo[1,5-a]pyrimidin-6-yl)-3-[6-[5-[5-[4-[2-(2,6-dioxo-3-piperidyl)-1-oxo-isoindolin-5-yl]piperazin-1-yl]pentyl]-1,2,4-oxadiazol-3-yl]-5-(trifluoromethyl)-3-pyridyl]urea] | < 500 nM | ≤ 0.2 µM

Results, then the compound that gave them:

Row | EC50 [1] | EC50 [2] | Structure (SMILES)
9 | 1000 to 5000 nM | ≤ 0.2 µM | Cc1cc(NC(=O)Nc2cnc3ccnn3c2C(C)C)cnc1-c1noc(CCCCC(=O)N2CCN(c3ccc4c(c3)CN(C3CCC(=O)NC3=O)C4=O)CC2)n1 (stereo not shown) [Compound 86, 1-[6-[5-[5-[4-[2-(2,6-dioxo-3-piperidyl)-1-oxo-isoindolin-5-yl]piperazin-1-yl]-5-oxo-pentyl]-1,2,4-oxadiazol-3-yl]-5-methyl-3-pyridyl]-3-(7-isopropylpyrazolo[1,5-a]pyrimidin-6-yl)urea]
10 | < 500 nM | ≤ 0.2 µM | Cc1cc(NC(=O)Nc2cnc3ccnn3c2C(C)C)cnc1-c1noc(CCCCCN2CCN(c3ccc4c(c3)CN(C3CCC(=O)NC3=O)C4=O)CC2)n1 (stereo not shown) [Compound 87, 1-[6-[5-[5-[4-[2-(2,6-dioxo-3-piperidyl)-1-oxo-isoindolin-5-yl]piperazin-1-yl]pentyl]-1,2,4-oxadiazol-3-yl]-5-methyl-3-pyridyl]-3-(7-isopropylpyrazolo[1,5-a]pyrimidin-6-yl)urea]
11 | < 500 nM | ≤ 0.2 µM | Cc1cc(NC(=O)Nc2cnc3ccnn3c2C(C)C)cnc1-c1noc(CCCC(=O)N2CCN(c3ccc4c(c3)CN(C3CCC(=O)NC3=O)C4=O)CC2)n1 (stereo not shown) [Compound 89, 1-[6-[5-[4-[4-[2-(2,6-dioxo-3-piperidyl)-1-oxo-isoindolin-5-yl]piperazin-1-yl]-4-oxo-butyl]-1,2,4-oxadiazol-3-yl]-5-methyl-3-pyridyl]-3-(7-isopropylpyrazolo[1,5-a]pyrimidin-6-yl)urea]
12 | 500 to 1000 nM | ≤ 0.2 µM | Cc1cc(NC(=O)Nc2cnc3ccnn3c2C(C)C)cnc1-c1noc(CCCCCC(=O)N2CCN(c3ccc4c(c3)CN(C3CCC(=O)NC3=O)C4=O)CC2)n1 (stereo not shown) [Compound 91, 1-[6-[5-[6-[4-[2-(2,6-dioxo-3-piperidyl)-1-oxo-isoindolin-5-yl]piperazin-1-yl]-6-oxo-hexyl]-1,2,4-oxadiazol-3-yl]-5-methyl-3-pyridyl]-3-(7-isopropylpyrazolo[1,5-a]pyrimidin-6-yl)urea]
13 | < 500 nM | ≤ 0.2 µM | Cc1cc(NC(=O)Nc2cnc3ccnn3c2C(C)C)cnc1-c1noc(CCCCCCN2CCN(c3ccc4c(c3)CN(C3CCC(=O)NC3=O)C4=O)CC2)n1 (stereo not shown) [Compound 92, 1-[6-[5-[6-[4-[2-(2,6-dioxo-3-piperidyl)-1-oxo-isoindolin-5-yl]piperazin-1-yl]hexyl]-1,2,4-oxadiazol-3-yl]-5-methyl-3-pyridyl]-3-(7-isopropylpyrazolo[1,5-a]pyrimidin-6-yl)urea]
14 | < 500 nM | ≤ 0.2 µM | CC(C)c1c(NC(=O)Nc2cnc(-c3noc(CCCCCCN4CCN(c5ccc6c(c5)CN(C5CCC(=O)NC5=O)C6=O)CC4)n3)c(Cl)c2)cnc2ccnn12 (stereo not shown) [Compound 93, 1-[5-chloro-6-[5-[6-[4-[2-(2,6-dioxo-3-piperidyl)-1-oxo-isoindolin-5-yl]piperazin-1-yl]hexyl]-1,2,4-oxadiazol-3-yl]-3-pyridyl]-3-(7-isopropylpyrazolo[1,5-a]pyrimidin-6-yl)urea]

From US20250163066A1, “PROTACs of MALT1” (TEGID THERAPEUTICS, INC., priority 2022, published 2025)
